Measurements taken from patent publication US20070243146A1, “Vitamin K1 as Energizer in Cosmetic Formulations” (priority 2004, published 2007).

What was measured:
[1] = 45 mg/day, women with osteoporosis; cited from earlier work
eukaryotic cell lines = conditions: cited from earlier work
[2] = tested on: human primary fibroblasts; assay: In vitro analysis of ATP levels in human epidermal fibroblasts (ViaLight Plus ATP assay); type: cell-based
Method: The biological endpoint in the example is the energy level of each individual cell. This is determined quantitatively by the level of adenosine triphosphate (ATP), which is the common energy storage molecule in human cells.
Primary epidermal fibroblast were isolated from human foreskin and cultured in DMEM with 10% fetal-bovine serum-(FBS), penicillin, and streptomycin. The cells were maintained in a growth chamber at 37° C. and 5% CO2 and used for these kinds of experiments between passage 8 and 12. Fibroblasts were transferred to 96 well plates and allowed to attach for 5 h in standard medium before a serum starvation with 1% FBS over 4 days was initiated.
Epidermal fibroblasts were treated between 4 h and 48 h with vitamin K1 at concentrations up to 44 μM in DMEM. After variing incubation time, the ATP-assay was performed with the High Sensitivy Cell Proliferation Assay (Via light Plus, Cambrex). The procedure was done according to the manufacturers recommendations. Briefly, the culture plate was removed from the incubator and was allowed to cool down to room temperature for at least 5 minutes, then 50 μl of Cell Lysis Reagent were added to each well and incubated 10 minutes, 100 μl of AMR PLUS were added to each well and incubated for 2 minutes at room temperature. The plate was analysed in a luminometer.

## menaquinone [vitamin K2]
[1]
  effect on loss of bone mineral density: slow down but not prevent a progressive loss of bone mineral density
  effect on risk of bone fractures: reduce the risk of bone fractures

## CC1=C(C/C=C(\C)CCC[C@H](C)CCC[C@H](C)CCCC(C)C)C(=O)c2ccccc2C1=O [vitamin K1, phytomenadione]
Eukaryotic cell lines
  stimulation of cell growth via transplasma membrane electron transport: no efficacy
[2]; 2 μM vitamin K1, serum-starved fibroblasts, FIG. 1
  incubation time at which maximum stimulation of ATP levels is reached: about 16 h
[2]; dose-response at two time points, no correlation to the time point, FIG. 2
  concentration with the most promising induction of ATP levels: 2 µM

## COC1=C(OC)C(=O)C(C/C=C(\C)CC/C=C(\C)CC/C=C(\C)CC/C=C(\C)CC/C=C(\C)CC/C=C(\C)CC/C=C(\C)CC/C=C(\C)CC/C=C(\C)CCC=C(C)C)=C(C)C1=O [coenzyme Q10]
Eukaryotic cell lines
  stimulation of cell growth via transplasma membrane electron transport: able to stimulate these cells
